The numbers were not newly measured in patent US9795686B2, “Biomaterials comprising hyaluronic acid binding peptides and bifunctional biopolymer molecules for hyaluronic acid retention and tissue engineering applications” (THE JOHNS HOPKINS UNIVERSITY, priority 2012, dated 2017), which cites them from elsewhere.

The term Kd denotes the constant that tells how readily two partners part at equilibrium.

For this data set the following is noted: previously observed; read-out: Kd, affinity of HABPep for HA.

As to GAHWQFNALTVR [HABPep], the equilibrium dissociation constant (Kd) was 1650 nM.
